# Assay results reported in US20070281857A1, “FORMIC ACID AS AN HERBICIDE” (MARRONE ORGANIC INNOVATIONS, priority 2006, published 2007).
# Where two headings read alike, the source gives them in different places.
# Experiments:
# [1] = test system: Canada thistle and other perennials; details: cited from earlier work
# [2] = test system: monocotyledonous wheat plants (Triticum aestivum); details: foliar spray 5%; one day post-treatment
# Description: (§1) In order to determine whether formic acid could be used as a foliar herbicide it was applied as a foliar spray to the leaves of dicotyledonous radish plants (Raphanus sativas) and monocotyledonous wheat plants (Triticum aestivum). Solutions were applied to plants using a small handheld sprayer.
# (§2) Formic acid and acetic acid solutions at three concentrations (1%, 3%, 5%) were applied and water was used as a check. A barrier was inserted between the rows of plants on either side of the row being treated to avoid drift of sprays into neighboring rows. Plants were evaluated at 24-hour and 72-hour intervals for the number of surviving plants and a percentage was derived from this number in comparison with the number of plants originally present in the row.
# [3] = test system: dicotyledonous radish plants (Raphanus sativas); details: one day post-treatment
# Description: as §1, §2
# [4] = test system: wheat (Triticum aestivum); details: spray
# Experimental: (§3) The herbicidal effect of formic acid was compared with that of acetic acid in a greenhouse study using radish (Raphanus sativus) and wheat (Triticum aestivum) as test plants. Both formic acid and acetic acid were diluted in water at 1, 3, and 5%, and deionized water was used as a control. Tween 20 was added to each of the solutions at a rate 0.04% for use as a surfactant. Solutions were applied to plants using a small handheld sprayer. Plants were evaluated at 24- and 72-hours after treatment for the % control.
# [5] = test system: radish (Raphanus sativus); details: spray
# Experimental: as §3
# [6] = test system: annual weeds tested including foxtail, lambsquarters, and pigweed; details: found by the USDA; cited from earlier work
smiles,measurement,setting,value
CC(=O)O [Acetic acid],control of perennials,[1],does not control the root system
same,wheat plants killed,[2],30%
same,"foliage surviving, radish",[3]; foliar spray 1%,50%
same,"foliage surviving, radish",[3]; foliar spray 3%,30%
same,killing of foliage of radish plants,[3]; foliar spray 5%,killed all foliage
same,% control of wheat seedlings,"[4]; 5%, 72-h",28%
same,% control of wheat seedlings,"[4]; lower concentrations (1 and 3%), after 72-h",5-14%
same,% control of the dicot weeds (radish),[5]; 1%,51%
same,% control of the dicot weeds (radish),[5]; 3%,71%
same,control of radish plants compared with formic acid (100%),[5]; 5% dilution,comparable
same,share of annual weeds tested against which effective,[6],80%
